From ChEMBL document CHEMBL3045844, “Synthetic utility of sydnones: synthesis of pyrazolines derivatized with 1,2,4-triazoles as antihyperglymic, antioxidant agents and their DNA cleavage study” (Med Chem Res, 2012)
Active and inactive are the calls of the source. No cut-off for these calls is given here.

Legend:
[1] = tested on: Radical scavenging activity; experiment: Antioxidant activity assessed as DPPH radical scavenging activity at 50 ug after 20 min; assay type: functional
[2] = tested on: Radical scavenging activity; experiment: Antioxidant activity assessed as DPPH radical scavenging activity at 100 ug after 20 min; assay type: functional
[3] = tested on: Radical scavenging activity; experiment: Antioxidant activity assessed as DPPH radical scavenging activity at 10 ug after 20 min; assay type: functional
[4] = Induction of DNA cleavage at 100 ug after 2 hr by electrophoresis relative to control
[5] = target: T1, Pancreatic alpha-amylase (Homo sapiens) (UniProt P04746); experiment: Activity of alpha amylase (unknown origin) at 1 mg/ml after 10 min relative to control
T1 sequence (whole entry): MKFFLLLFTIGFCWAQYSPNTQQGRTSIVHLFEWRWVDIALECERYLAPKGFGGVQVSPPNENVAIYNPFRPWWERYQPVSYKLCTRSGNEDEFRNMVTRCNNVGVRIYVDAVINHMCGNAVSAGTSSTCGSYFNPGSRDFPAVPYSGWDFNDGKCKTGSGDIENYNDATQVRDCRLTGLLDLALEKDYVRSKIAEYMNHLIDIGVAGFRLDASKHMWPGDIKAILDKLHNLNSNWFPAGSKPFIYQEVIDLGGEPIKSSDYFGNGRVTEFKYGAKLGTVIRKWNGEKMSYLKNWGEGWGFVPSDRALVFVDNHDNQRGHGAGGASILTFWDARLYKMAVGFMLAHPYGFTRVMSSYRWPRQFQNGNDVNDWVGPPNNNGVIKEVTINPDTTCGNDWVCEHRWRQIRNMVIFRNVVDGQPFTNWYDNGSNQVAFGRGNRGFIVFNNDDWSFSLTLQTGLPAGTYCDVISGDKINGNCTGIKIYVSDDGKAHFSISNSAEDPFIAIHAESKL

Row | Compound | Activity [4] | Activity [5] | Activity [1] | Activity [2] | Activity [3]
1 | COc1ccc(C2CC(c3ccc(-n4nc(C)n(N)c4=O)cc3)=NN2C(C)=O)cc1OC (stereo not given) | Active | 64% | 1.18% | 1.67% | 0.48%
2 | CC(=O)N1N=C(c2ccc(-n3nc(C)n(N)c3=O)cc2)CC1c1cccc(Cl)c1 (stereo not given) | Active | 96.5% | 63.8% | 73.8% | 15.2%
3 | CC(=O)N1N=C(c2ccc(-n3nc(C)n(N)c3=O)cc2)CC1c1ccccc1 (stereo not given) | Active | 129% | 30.2% | 56.1% | 24.7%
4 | COc1ccc(C2CC(c3ccc(-n4nc(C)n(N)c4=O)cc3)=NN2C(C)=O)cc1 (stereo not given) | Active | 96.5% | 2.28% | 2.4% | 0.6%
5 | CC(=O)N1N=C(c2ccc(-n3nc(C)n(N)c3=O)cc2)CC1c1ccccc1Cl (stereo not given) | Active | 76.7% | 67.8% | 78.4% | 20%

Further lines, with some results ahead:

Row | Activity [4] | Activity [5] | Compound | Activity [1] | Activity [2] | Activity [3]
6 | Active | 102% | CC(=O)N1N=C(c2ccc(-n3nc(C)n(N)c3=O)cc2)CC1c1ccc([N+](=O)[O-])cc1 (stereo not given) | 1.09% | 1.49% | 0.4%
7 | Active | 76.7% | CC(=O)N1N=C(c2ccc(-n3nc(C)n(N)c3=O)cc2)CC1c1ccc(O)cc1 (stereo not given) | 9.03% | 16.9% | 3.08%
8 | Active | 96.5% | CC(=O)N1N=C(c2ccc(-n3nc(C)n(N)c3=O)cc2)CC1c1ccc(C)cc1 (stereo not given) | 70.1% | 82.5% | 23%
9 | Active | 126% | CC(=O)N1N=C(c2ccc(-n3nc(C)n(N)c3=O)cc2)CC1c1ccc(Cl)cc1 (stereo not given) | 69.9% | 81.5% | 21.7%
